The results in this text go back to patent US8541572B2.

The first test has as its system TNF-α production in LPS-stimulated human whole blood. Put plainly: Inhibition of TNF-α production from human whole blood (hWBA). Format: cell-based. The following applies: Homo sapiens, IC50 for TNF-α production, LPS-stimulated human whole blood; read-out: hWBA.
For the molecule `COc1ccc2c(c1)C(=O)N(C[C@@]1(C#Cc3cncc(C(=O)NN)c3)NC(=O)NC1=O)C2` [Compound 2255], the IC50 was 432 nM. Still for that read-out and setting: next, `COc1ccc2c(c1)C(=O)N(C[C@]1(C#Cc3cncc(C(=O)NN)c3)NC(=O)NC1=O)C2` [Compound 2256]: 1000 nM; `COc1ccc2c(c1)C(=O)N(C[C@@]1(C#Cc3ccc(C4(C)NC(=O)NC4=O)cc3C)NC(=O)NC1=O)C2` (stereo partly shown) [Compound 2257]: 490 nM; `COc1ccc2c(c1)C(=O)N(C[C@@]1(C#Cc3ccc(C(C)(C)C(N)=O)cc3)NC(=O)NC1=O)C2` [Compound 2262]: 517 nM. Regarding `COc1ccc2c(c1)C(=O)N(C[C@@]1(C#Cc3cccnc3-c3cn[nH]c3)NC(=O)NC1=O)C2` [Compound 2266], the IC50 turned out to be 927 nM. Same read-out and setting: next, `COc1ccc2c(c1)C(=O)N(C[C@@]1(C#Cc3cccnc3-c3cccnc3)NC(=O)NC1=O)C2` [Compound 2270]: 2110 nM. On to `COc1ccc2c(c1)C(=O)N(C[C@@]1(C#Cc3ccc(CC4(C)NC(=O)NC4=O)cc3)NC(=O)NC1=O)C2` (stereo partly shown) [Compound 2281], for which the IC50 came to 1000 nM. On the same count and under the same terms, with `COC(=O)Cc1ccc(C#C[C@]2(CN3Cc4ccc(OC)cc4C3=O)NC(=O)NC2=O)cc1` [Compound 2284] the figure was 379 nM; with `COc1ccc2c(c1)C(=O)N(CC1(C#Cc3cccnc3N3CCN(C)CC3)NC(=O)NC1=O)C2` (stereo not shown) [Compound 2285], 1230 nM; with `COc1ccc2c(c1)C(=O)N(CC1(C#Cc3cccnc3NCCN(C)C)NC(=O)NC1=O)C2` (stereo not shown) [Compound 2286], 2000 nM.

Consider `COc1ccc2c(c1)C(=O)N(C[C@@]1(C#Cc3cccnc3N3CCOCC3)NC(=O)NC1=O)C2` [Compound 2287], for which the IC50 amounted to 633 nM.

The test is the same for the next values; noted with them: Homo sapiens, IC50 for inhibition of TNF-α production, LPS-stimulated human whole blood; read-out: hWBA.
With `COc1ccc2c(c1)C(=O)N(C[C@@]1(C#Cc3ccc(-n4cn[nH]c4=O)cc3)NC(=O)NC1=O)C2` [Compound 1914], the IC50 stood at 538 nM.

For `COc1ccc2c(c1)C(=O)N(C[C@@]1(C#Cc3ccc(-n4c(-c5cccnc5)n[nH]c4=O)cc3)NC(=O)NC1=O)C2` [Compound 1916], the IC50 came to 258 nM.

`COc1ccc2c(c1)C(=O)N(C[C@@]1(C#Cc3ccccc3C=O)NC(=O)NC1=O)C2` [Compound 1918]: the IC50 was found to be 936 nM. As to `CCN1CCN(C(=NO)c2cnc(C#C[C@]3(CN4Cc5ccc(OC)cc5C4=O)NC(=O)NC3=O)c(OC)c2)CC1` [Compound 1923], the IC50 was 204 nM. The same measure, in the same setting: next, `COc1ccc2c(c1)C(=O)N(C[C@@]1(C#Cc3ccc(C(c4ccc[nH]4)c4ccc[nH]4)cc3)NC(=O)NC1=O)C2` [Compound 2201]: 1200 nM. `COc1ccc2c(c1)C(=O)N(C[C@@]1(C#Cc3cnc(N)nc3N)NC(=O)NC1=O)C2` [Compound 2209]: the IC50 was 1600 nM. Take `COc1ccc2c(c1)C(=O)N(C[C@@]1(C#Cc3cncc(-c4ccc(C(N)=O)o4)c3)NC(=O)NC1=O)C2` [Compound 2213]: the IC50 came out at 776 nM.

Take `COc1ccc2c(c1)C(=O)N(C[C@@]1(C#Cc3cnc4ccccc4c3CO)NC(=O)NC1=O)C2` [Compound 2219]: the IC50 came out at 8900 nM.

With `COc1ccc2c(c1)C(=O)N(C[C@@]1(C#Cc3cc(C(N)=O)ccc3C)NC(=O)NC1=O)C2` [Compound 2220], the IC50 worked out at 417 nM.

Regarding `COc1ccc2c(c1)C(=O)N(C[C@@]1(C#Cc3ccc(CCNC(=O)C(F)(F)F)s3)NC(=O)NC1=O)C2` [Compound 2221], the IC50 stood at 930 nM. Same read-out and setting: with `COc1ccc2c(c1)C(=O)N(C[C@@]1(C#Cc3cc(Br)ccc3O)NC(=O)NC1=O)C2` [Compound 2229] the figure was 10000 nM.

Consider `COc1ccc2c(c1)C(=O)N(C[C@@]1(C#Cc3ccc(OC)nc3OC)NC(=O)NC1=O)C2` [Compound 2230], for which the IC50 was determined as 1000 nM. Same read-out and setting: with `COc1ccc2c(c1)C(=O)N(C[C@@]1(C#Cc3cnc(C)nc3O)NC(=O)NC1=O)C2` [Compound 2231] the figure was 1130 nM; with `COc1ccc2c(c1)C(=O)N(C[C@@]1(C#Cc3cncc(-c4cc[nH]n4)c3)NC(=O)NC1=O)C2` [Compound 2234], 678 nM.

The test is the same for the next values; noted with them: IC50 for TNF-α production, LPS-stimulated human whole blood; read-out: hWBA.
On to `COc1ccc2c(c1)C(=O)N(C[C@@]1(C#Cc3cncc(-c4noc(C(N)=O)n4)c3)NC(=O)NC1=O)C2` [Compound 2254], for which the IC50 stood at 713 nM. With `COc1ccc2c(c1)C(=O)N(C[C@@]1(C#Cc3ccc(C4(C(N)=O)CC4)cc3)NC(=O)NC1=O)C2` [Compound 2260], the IC50 was determined as 227 nM. Still for that read-out and setting: next, `CNC(=O)C1(c2ccc(C#C[C@]3(CN4Cc5ccc(OC)cc5C4=O)NC(=O)NC3=O)cc2)CC1` [Compound 2261]: 443 nM. Same read-out and setting: next, `COc1ccc2c(c1)C(=O)N(C[C@@]1(C#Cc3cccnc3-c3c(C)nn(C)c3C)NC(=O)NC1=O)C2` [Compound 2264]: 2540 nM; `COC(=O)C(c1ccc(C#C[C@]2(CN3Cc4ccc(OC)cc4C3=O)NC(=O)NC2=O)cc1)N1CCCNCC1` (stereo partly shown) [Compound 2271]: 566 nM. Still for that read-out and setting: with `COc1ccc2c(c1)C(=O)N(C[C@@]1(C#Cc3ccc(NCCN(C)C)nc3)NC(=O)NC1=O)C2` [Compound 2289] the figure was 419 nM; with `COc1ccc2c(c1)C(=O)N(C[C@@]1(C#Cc3cccnc3-c3cncnc3)NC(=O)NC1=O)C2` [Compound 2290], 1590 nM. In the case of `COc1ccc2c(c1)C(=O)N(C[C@@]1(C#Cc3cccnc3-c3ccncc3)NC(=O)NC1=O)C2` [Compound 2291], the IC50 amounted to 2260 nM. Consider `COc1ccc2c(c1)C(=O)N(C[C@@]1(C#Cc3ccc(-c4cn[nH]c4)nc3)NC(=O)NC1=O)C2` [Compound 2292], for which the IC50 was determined as 372 nM.

Staying with this test, now noted: IC50 for inhibition of TNF-α production, LPS-stimulated human whole blood; read-out: hWBA.
For the molecule `COc1ccc2c(c1)C(=O)N(C[C@@]1(C#Cc3ccc(-n4c(C)n[nH]c4=O)cc3)NC(=O)NC1=O)C2` [Compound 1915], the IC50 came out at 243 nM. Still for that read-out and setting: next, `CCN1CCN(C(=O)C2CCC(=O)N2c2ccc(OC)c(C#C[C@]3(CN4Cc5ccc(OC)cc5C4=O)NC(=O)NC3=O)n2)CC1` (stereo partly shown) [Compound 1917]: 3360 nM; `COc1ccc2c(c1)C(=O)N(C[C@@]1(C#Cc3ccc(-c4nnc(N)o4)cc3)NC(=O)NC1=O)C2` [Compound 1919]: 244 nM; `CCNc1nnc(-c2ccc(C#C[C@]3(CN4Cc5ccc(OC)cc5C4=O)NC(=O)NC3=O)cc2)o1` [Compound 1920]: 269 nM. Same read-out and setting: with `COc1ccc2c(c1)C(=O)N(C[C@@]1(C#Cc3nc(N)ccc3O)NC(=O)NC1=O)C2` [Compound 1921] the figure was 808 nM. The same measure, in the same setting: with `COc1ccc2c(c1)C(=O)N(C[C@@]1(C#Cc3nc(-c4cccc(O)c4)ccc3OC)NC(=O)NC1=O)C2` [Compound 1922] the figure was 9910 nM; with `COc1ccc2c(c1)C(=O)N(C[C@@]1(C#Cc3ncc(C(=NO)N4CCN(c5cnccn5)CC4)cc3OC)NC(=O)NC1=O)C2` [Compound 1924], 515 nM. For the molecule `COc1ccc2c(c1)C(=O)N(C[C@@]1(C#Cc3ccc(N(c4cccnc4)C4CCNCC4)nc3)NC(=O)NC1=O)C2` [Compound 2200], the IC50 worked out at 430 nM. Still for that read-out and setting: next, `COc1ccc2c(c1)C(=O)N(C[C@@]1(C#Cc3ccc(CCN)cc3)NC(=O)NC1=O)C2` [Compound 2202]: 219 nM; `COc1ccc2c(c1)C(=O)N(C[C@@]1(C#Cc3nc(N4CCN(c5ccncc5)CC4)ccc3OC)NC(=O)NC1=O)C2` [Compound 2205]: 7270 nM. Regarding `COc1ccc2c(c1)C(=O)N(C[C@@]1(C#Cc3cncc(-c4cn[nH]c4)c3)NC(=O)NC1=O)C2` [Compound 2207], the IC50 came out at 260 nM.

As to `COc1ccc2c(c1)C(=O)N(C[C@@]1(C#Cc3cncc(-c4ccc(C(N)=O)cc4)c3)NC(=O)NC1=O)C2` [Compound 2208], the IC50 is 361 nM. The same measure, in the same setting: with `COc1ccc2c(c1)C(=O)N(C[C@@]1(C#Cc3cnc(N4CCC(=O)CC4)nc3N)NC(=O)NC1=O)C2` [Compound 2210] the figure was 1010 nM.

As for `COc1ccc2c(c1)C(=O)N(C[C@@]1(C#Cc3ccc(N4CCC(=O)CC4)nc3)NC(=O)NC1=O)C2` [Compound 2211], the IC50 is 1000 nM.

Consider `COc1ccc2c(c1)C(=O)N(C[C@@]1(C#Cc3ccc(C4(CN5Cc6cc(O)ccc6C5=O)NC(=O)NC4=O)cc3)NC(=O)NC1=O)C2` (stereo partly shown) [Compound 2216], for which the IC50 was 419 nM.

Turning to `COc1ccc2c(c1)C(=O)N(C[C@@]1(C#Cc3ccc([C@@]4(CN5Cc6ccc(OC)cc6C5=O)NC(=O)NC4=O)cc3)NC(=O)NC1=O)C2` [Compound 2217], the IC50 was found to be 849 nM.

Turning to `COc1ccc2c(c1)C(=O)N(C[C@@]1(C#Cc3ccc(C4=NCCN4)cc3)NC(=O)NC1=O)C2` [Compound 2222], the IC50 stood at 227 nM. Still for that read-out and setting: with `COc1ccc2c(c1)C(=O)N(C[C@@]1(C#Cc3ccc(-c4nnc[nH]4)cc3OC)NC(=O)NC1=O)C2` [Compound 2223] the figure was 131 nM; with `COc1ccc2c(c1)C(=O)N(C[C@@]1(C#Cc3ccc(-n4cncn4)cc3)NC(=O)NC1=O)C2` [Compound 2228], 1140 nM; with `COc1ccc2c(c1)C(=O)N(C[C@@]1(C#Cc3c(C)ncc(C(=O)O)c3O)NC(=O)NC1=O)C2` [Compound 2232], 699 nM. The same measure, in the same setting: next, `COc1ccc2c(c1)C(=O)N(C[C@@]1(C#Cc3cncc(-c4csc(N)n4)c3)NC(=O)NC1=O)C2` [Compound 2233]: 811 nM.

In the case of `COc1ccc2c(c1)C(=O)N(C[C@@]1(C#Cc3ccc4[nH]nc(N)c4c3)NC(=O)NC1=O)C2` [Compound 2237], the IC50 came out at 520 nM. Regarding `CCN1CCN(c2n[nH]c3ccc(C#C[C@]4(CN5Cc6ccc(OC)cc6C5=O)NC(=O)NC4=O)cc23)CC1` [Compound 2238], the IC50 came to 422 nM.

In the case of `COc1ccc2c(c1)C(=O)N(C[C@@]1(C#Cc3cncc(NC(C)=O)c3)NC(=O)NC1=O)C2` [Compound 2242], the IC50 is 444 nM. Consider `CCOC(=O)Nc1cncc(C#C[C@]2(CN3Cc4ccc(OC)cc4C3=O)NC(=O)NC2=O)c1` [Compound 2243], for which the IC50 is 1230 nM. Consider `COc1ccc2c(c1)C(=O)N(C[C@@]1(C#Cc3cnc4nc(O)oc4c3)NC(=O)NC1=O)C2` [Compound 2244], for which the IC50 came out at 574 nM.

On to `COc1ccc2c(c1)C(=O)N(C[C@@]1(C#Cc3ccc(C(=NO)C4CCN(C)CC4)cc3)NC(=O)NC1=O)C2` [Compound 2246], for which the IC50 was found to be 40 nM.
